The numbers were not newly measured in US10665326B2, “Deep proteome markers of human biological aging and methods of determining a biological aging clock” (INSILICO MEDICINE, INC., priority 2017, dated 2020), which cites them from elsewhere.

Series [1] concerns pre-senescent and senescent cells.

Consider `O=c1c(O)c(-c2ccc(O)c(O)c2)oc2cc(O)cc(O)c12` [quercetin], for which, in series [1], the “killing of pre-senescent and senescent cells” value was “able to kill pre-senescent and senescent cells”.
Consider Tocotrienols, for which the “killing of pre-senescent and senescent cells” value in series [1] is “able to kill pre-senescent and senescent cells”.
For the compound 740 Y-P, the mitogenic response result in the series with muscle cells is reported as “stimulates a mitogenic response”.
